This note sets out measurements from article PMC10419174, “WR1065 conjugated to thiol-PEG polymers as novel anticancer prodrugs: broad spectrum efficacy, synergism, and drug resistance reversal” (Frontiers in Oncology, 2023).

Read-outs that look alike come from different tables or passages of the source.

This assay deals with Malignant pleural mesothelioma HMESO1 cells. The conditions noted are these: for Fold increase in efficacy: drug alone ÷ drug in 4SP65-DDP combination. As to the method:
The percentage of growth inhibition was calculated as follows: […]

[1] abbreviates: 48-h treatment, amifostine ND = not definable up to 500 µM.
The mark [2] stands for this setting: drug alone, 48 h, 4SP65/cisplatin study.

In the case of 4-star-PEG-S-S-WR1065 [4SP65], the GI50 under setting [1] was 1300 ± 400 nM and the GI50 under setting [2] was 2000 ± 300 nM. The 50% inhibitory concentration (IC50) is 2900 ± 1000 nM under setting [1] and 4700 ± 200 nM under setting [2]. In addition, the LC99 was found to be 7.9 ± 2.6 µM under setting [1] and 12.4 ± 0.1 µM (drug alone, 48 h, 4SP65/cisplatin study, ND = not definable, highest concentration in parentheses). Further, the TGI by setting is: under setting [1], 2900 ± 800 nM; under setting [2], 4300 ± 200 nM. The “Fold increase in efficacy” value by setting is: (at GI50) 1.5 (NS) fold; (at IC50) 1.1 (NS) fold; (at LC50, GoE = gain of effect) 1.0 (NS) fold; (at LC99, GoE = gain of effect) 1.1 (NS) fold; (at TGI) 1.3 (NS) fold.
